In PMC11541474, “Toward New Therapeutics for Visceral Leishmaniasis: Efficacy and Mechanism of Action of Amides Inspired by Gibbilimbol B” (ACS Omega, 2024):

Assays:
[1] = system: L. (L.) infantum promastigotes; assay type: cell-based, Leishmania (L.) infantum; details: 9 at 141.5 μM, 10 at 110.1 μM, after 240 min
Description: Figure 5 Evaluation of ROS in promastigotes of L. (L.) infantum treated with compounds 9 (141.5 μM) or 10 (110.1 μM). […]
Measurements of ROS were conducted as previously reported.[48] Briefly, promastigotes were treated with compounds 9 (141.5 μM) or 10 (110.1 μM) in HBSS+Glu at 24 °C using H2DCFDA (Molecular Probes). Fluorescence was measured using a fluorimetric microplate reader (FilterMax F5Multi-Mode, Molecular Devices) with excitation and emission filters at 485 and 520 nm, respectively.[48] Untreated and treated parasites (H2O2 - 40 μM) were used as negative and positive controls, respectively.

[2] = system: L. (L.) infantum promastigotes; experiment: intracellular Ca2+ levels, Fura-2 AM; assay type: cell-based, Leishmania (L.) infantum; details: 9 at 141.5 μM, 10 at 110.1 μM
Text: Compounds that affect intracellular Ca^2+ balance in Leishmania may cause changes in the mechanism of transport of these ions in trypanosomatids.[26] In Leishmania spp., Ca^2+ regulation involves the endoplasmic reticulum, the mitochondria, and the acidocalcisomes;[27],[28] increases in this intracellular ion can trigger processes such as apoptosis that led to the death of the parasite.[29] The Fura-2 AM marker was used to measure intracellular Ca^2+ levels in Leishmania (L.) infantum promastigotes. Fura-2 has a high affinity for Ca^2+, which results in the formation of fluorescent intracellular complexes that are proportional to intracellular Ca^2+ levels.[30] […] (Triton X-100) at all monitored times. […] Compound 10 induced similar levels of fluorescence to those induced by compound 9 but at a slower rate, as these levels were observed after 200 min of incubation.  Figure 7 Intracellular Ca^2+ levels in L. (L.) infantum treated with (A) compound 9 (141.5 μM) or (B) compound 10 (110.1 μM). Results were obtained using the Fluo-4 AM dye (excitation and emission at 485 and 535 nm, respectively). Untreated and treated with Triton X-100 (0.5% v/v) parasites were used as negative and positive controls, respectively. Fluorescence is represented as a percentage relative to the untreated control at 0 min (100%).***p < 0.0001. Measurements of intracellular Ca^2+ levels were conducted as previously reported.[49] Briefly, promastigotes were pretreated with Fura-2 AM (Molecular Probes) in PBS, washed and treated with compounds 9 (141.5 μM) or 10 (110.1 μM). Fluorescence was measured using a microplate reader (FilterMax […]-Mode, Molecular Devices) with excitation and emission at 360 and 500 nm, respectively. Untreated and treated parasites (0.5% Triton X-100) were used as negative and positive controls, respectively.

[3] = system: L. (L.) infantum promastigotes; assay type: cell-based, Leishmania (L.) infantum
Text: Changes in the plasma membrane integrity of Leishmania spp. can lead to cell death due to pore formation, pH imbalance, and nutrient-transport failure. Initially, the fluorescent probe Sytox Green was employed to analyze the permeability of the plasma membrane. […] Untreated parasites were used as a negative control for normalization (0% permeabilization) whereas the nonionic surfactant Triton X-100 was used for as positive control (100% permeabilization).
Figure 4 Plasma membrane permeability in L. (L.) infantum promastigotes after 4 h of treatment with compound (A) 9 (141.5 μM) or (B) 10 (110.1 μM), using the fluorescent probe Sytox Green (p < 0.0001). Negative control: untreated parasites; positive control: Triton X-100 (TX-100).
Assays for determination of plasma membrane integrity of L. (L.) infantum were conducted as previously reported.[46] Briefly, compounds 9 (141.5 μM) and 10 (110.1 μM) were added to different wells and the resulting fluorescence was measured using a fluorimetric microplate reader (FilterMax F5Multi-Mode, Molecular Devices). Triton X-100 (0.5%, v/v) and untreated parasites were used as positive negative controls, respectively.[47]

[4] = in vitro mammalian toxicity against NCTC cells; assay type: cell-based; details: 50% cytotoxic concentration, read-out: Cc50 Nctc (μm) ± SD
Description: (§1) Evaluation of in vitro mammalian toxicity against NCTC cells was performed as previously described.[40] The selectivity index was determined using the following equation: CC50 against NCTC cells/EC50 against amastigotes.[44] The CC50 and EC50 values were calculated using sigmoidal dose–response curves using Graph Pad Prism 5.0 software. One-way ANOVA testing with Tukey’s multiple comparison tests were used for evaluation of the statistical significance (p-value) of differences between the samples, which were tested in duplicate and all assays were repeated at least twice.

[5] = system: L. (L.) infantum promastigotes; experiment: in vitro activity against promastigote forms of L. (L.) infantum; assay type: cell-based, Leishmania (L.) infantum; details: Leishmania infantum; L. (L.) infantum promastigotes; read-out: Ec50 Promastigote (μm) ± SD
Description: as §1, with “activity” for “mammalian toxicity”, “promastigote and amastigote forms of L. (L.) infantum” for “NCTC cells”, “reported assays.[40]−[43]” for “described.[40] The selectivity index was determined using the following equation: CC50 against NCTC cells/EC50 against amastigotes.[44]”

[6] = system: L. (L.) infantum intracellular amastigotes; experiment: ex-vivo assay using intracellular amastigotes of L. (L.) infantum; assay type: cell-based, Leishmania (L.) infantum; details: for S.I. amastigote (selectivity index): CC50 against NCTC cells/EC50 against amastigotes; for EC50: Leishmania infantum, L. (L.) infantum intracellular amastigotes, read-out: Ec50 Amastigote (μm) ± SD
Description: as §1, with “activity” for “mammalian toxicity”, “promastigote and amastigote forms of L. (L.) infantum” for “NCTC cells”, “reported assays.[40]−[43]” for “described.[40] The selectivity index was determined using the following equation: CC50 against NCTC cells/EC50 against amastigotes.[44]”

| SMILES | ROS levels compared with negative control (H2DCFDA) [1] | incubation time at which Ca^2+ levels approached those of the positive control (Triton X-100) [2] | intracellular Ca^2+ concentration compared with untreated parasites [2] | permeabilization of the plasma membrane (Sytox Green) [3] | CC50 [4] | EC50 [5] | S.I. amastigote (selectivity index) [6] | EC50 [6] |
| --- | --- | --- | --- | --- | --- | --- | --- | --- |
| CCCCC(CC)CNC(=O)c1ccc([N+](=O)[O-])cc1 (stereo not shown) [Compound 10, N-(2-Ethylhexyl)-4-nitrobenzamide] | significantly reduced ROS levels | 200 min | increased the intracellular Ca^2+ concentration | did not induce permeabilization of the membrane | > 200 µM | 44.3 ± 0.4 µM | >16.4 | 12.2 ± 7.2 µM |
| CCCCC(CC)CNC(=O)c1ccc(Cl)cc1 (stereo not shown) [Compound 9, N-(2-Ethylhexyl)-4-chlorobenzamide] | significantly reduced ROS levels | ≤ 20 min | increased the intracellular Ca^2+ concentration | did not induce permeabilization of the membrane | > 200 µM | 41.9 ± 2.1 µM | >15.7 | 12.7 ± 4.9 µM |
